Measured values: patent publication US7399608B2, “Microbial detection and quantification” (Kimberly-Clark Worldwide, Inc., priority 2003, dated 2008)

Columns and labels:
[1] = test system: Polio virus type 1; details: virus diluted serially in media, 50-microliter aliquots, 3 minutes
[2] = test system: bacteria solution; experiment: Lateral flow device; details: 5 weight percent dye in iso-propanol striped on nitrocellulose HF75
Experimental: Millipore nitrocellulose HF75 membrane (from Millipore Corporation of Billerica, Mass., USA) was laminated onto a plastic supporting card (from Millipore Corp.) having a length of approximately 30 centimeters. On both the detection zone and control zone, a solution of 5 weight percent Reichardt's dye in iso-propanol was hand striped. The membrane was dried in a laboratory oven for 1 hour at a temperature of 37.5° C. After the membrane card was taken from the oven, a cellulosic wicking pad (Cat# CFSP203000 from Millipore Corp.) was attached to one end of the membrane closer to the control zone. The other end of the card, used to attach the sample pad, was cut off. The card was then sliced into 4 mm strips to form half sticks.
Once the half sticks were prepared, a bacteria solution was applied to the end of the detection membrane. […] The control line color remained the same through out the test.

[3] = test system: vaginal fluid samples (lactobacillus, BV bacteria); experiment: Reichardt's dye-coated stickers with normal and BV-infected vaginal fluid
Experimental: Considering the high prevalence of vaginal infections of bacterial origin, an experiment was performed to determine the response of Reichardt's dye-coated stickers to healthy (low pH, no bacterial infection), a pH positive/Bacterial Vaginosis (BV) negative (no bacterial infection, but higher than normal pH), and pH positive/BV positive (higher than normal pH and known bacterial infection) vaginal fluid samples. […] A sticker of each concentration was tested with normal, BV positive/pH positive, and BV negative/pH positive vaginal fluid samples.

[4] = test system: S. aureus; experiment: Solvent choice for Reichardt's dye coatings on SCOTT towels; design: species or system Staphylococcus aureus; details: coated SCOTT towel, 100 μl aliquots of S. aureus
Experimental: Solutions of Reichardt's dye in acetonitrile, isopropanol, and xylenes were prepared and the solutions were used to coat SCOTT® kitchen rolls towels and allowed to air-dry (FIGS. 12A and 12D).

[5] = test system: Influenza A; experiment: Virus detection with Reichardt's dye-coated stickers
[6] = test system: measles; experiment: as above
[7] = test system: Herpes Simplex Virus 1 (HSV-1); experiment: as above; details: 50-microliter droplet, 3 minutes
[8] = test system: P. aeruginosa; experiment: Quantification of bacterial contamination by Delta E (hand-held spectrophotometer); design: species or system Psuedomonas aeruginosa; details: label substrate, log CFU/ml (actual) 6
From the text: More specifically, indicator strips coated with Reichardt's dye were exposed with decreasing amounts of the bacteria aliquots. A hand-held spectrophotometer was used to after application of each aliquot to determine “Delta E” value (calculated using L*, A*, and B* values) for each CFU/mL concentration. The results are set forth below in Table 4 (for paper) and Table 5 (for label). From the above, standard detection curves were generated as shown in FIGS. 5-7 for S. aureus, P. aeruginosa, and E. coli, respectively. As shown, each type of bacteria changed the color of the dye-treated substrate in a slightly different way, creating a unique standard curve. Thereafter, drops of unknown bacteria concentrations were placed on the stickers and a spectrophotometer was used to measure the “Delta E” of the resulting color. The numerical values obtained for each unknown sample set forth below in Tables 6-7. […] Although a few of the results were not completely accurate, the present inventors believe that improving the uniformity of the coating would further enhance detection accuracy.

[9] = test system: bacteria in aged chicken juice; experiment: Dried dye coating on ceramic surface with or without TWEEN 80, aged chicken juice; details: 80 mg/10 mL acetonitrile with 200 μL TWEEN 80, dried on ceramic, drop of aged chicken juice
From the text: This solution was then used to coat a ceramic surface (FIG. 11) and allowed to air dry. […] After drying, a drop of aged chicken juice known to have a high bacterial count was placed on the each coating area (11B). […] Furthermore, the addition of TWEEN® surfactant allowed for easy removal of the dye from the surface.

[10] = test system: vaccinia; details: 50-microliter droplet, 3 minutes
[11] = test system: microbes on computer keyboard; experiment: Indicator spray on computer keyboard
Experimental: Reichardt's dye was dissolved in isopropanol (160 mg in 10 mL of isopropanol) and attached to an aerosol-based spray device. The keyboard was then sprayed with the indicator solution (10B).

[12] = test system: S. aureus; experiment: Titration of substrate-bound microorganism with Reichardt's dye solution; design: species or system Staphylococcus aureus
Experimental: On a SCOTT® paper towel was placed 100 μl each of serially diluted S. aureus bacterial suspensions. […] This was repeated on each spot corresponding to where different concentrations of bacteria were placed.

[13] = Effect of acid and strong base on Reichardt's dye de-colorization; format: physicochemical
From the text: This was repeated with another area.

[14] = test system: bacteria in aged chicken juice; experiment: Dye solution dropped onto aged chicken juice on SCOTT paper towel (comparative examples); details: 100 mg suspended in 10 ml acetonitrile, dropped onto aged chicken juice on SCOTT paper towel
[15] = 160 mg in 10 ml acetonitrile dried on SCOTT towel

For `[O-]c1c(-c2ccccc2)cc(-[n+]2c(-c3ccccc3)cc(-c3ccccc3)cc2-c2ccccc2)cc1-c1ccccc1` [Reichardt's dye, 2,6-diphenyl-4-(2,4,6-triphenylpyridinio)-phenolate], the “lowest ten-fold dilution at which stickers changed color” value [1] was 10^−6, the “color change in detection zone of lateral flow half stick” value [2] was “a color change was noted in the detection zone” and the “de-colorization by BV negative/pH positive vaginal fluid” value [3] was “only faintly de-colorized”. The “de-colorization by BV positive/pH positive vaginal fluid” value [3] was “next sharpest de-colorization”, the “de-colorization by normal vaginal fluid” value [3] was “sharpest de-colorization” and the “color change of coating made from acetonitrile solution” value [4] was “rapid de-colorization”. The “color change of coatings made from isopropanol and xylenes solutions” value [4] was “No visible color change”, the “de-colorization of sticker by undiluted virus” value (“de-colorization of sticker” for short) [5] was “less than that observed for the other viruses” and the “de-colorization of sticker” value [6] was “less than that observed for the other viruses”. For the same molecule, the “de-colorization of sticker” value [7] was “stronger de-colorization of the sticker than that observed for Rhinovirus and Polio virus”, the “Delta E, unknown sample” value [8] was 4.1002 and the “de-colorization faster with TWEEN 80 surfactant than without” value [9] was 20 to 30 s. For the same molecule, the “de-colorization of sticker” value [10] was “less than that observed for the other viruses”, the “de-colorization of spray on old computer keyboard” value [11] was “rapid de-colorization of the dye in certain areas” and the “Amount of Dye Required for Persistent Color” value ([12]; 160 mg in 10 ml acetonitrile, 10 μl aliquots, 100 μl of 10^7 CFU/ml on towel) was 90 µL. The “de-colorization time of dye drops” value ([12]; 10 μl drops of 40 mg/10 ml acetonitrile on 100 μl serially diluted suspensions on SCOTT towel) was < 1 s, the “effect of 1 N NaOH on acid-decolorized dye spots” value [13, 15] was “rapid re-colorization” and the “effect of acetic acid and Aldrich buffer pH 2.0 on dried dye spots” value [13, 15] was “rapid de-colorization”. The “effect of 1 N NaOH on dye decolorized by aged chicken juice” value ([13]; indicator spray 160 mg in 10 ml acetonitrile, hot plate surface) was “re-colorization of that small spot” and the “color change on aged chicken juice (control)” value [14] was “immediately decolorized”.
